# Reference: a melting point compilation (Tetko et al.; mined from patent text by program, amines drawn as free bases though some values may be those of a salt)
row,SMILES,melting point [°C]
1,CCCn1c(=O)c2[nH]c(/C=C/c3ccc(OC)c(OC)c3OC)nc2n(CCC)c1=O,246 to 247
2,CCOC(=O)c1cn2c3c(cc(F)cc3c1=O)C1CCCCC12 (stereo not drawn),97 to 98
3,Cn1nc2nnsc2c1Br,99 to 101
4,CN(C)C(=O)N(C)C(=O)Nc1ccc(Cl)cc1,94.5 to 95
5,COC(=O)C1CCCN1S(=O)(=O)c1ccc(C)cc1 (racemic),93
6,CC(=O)OC1CSC(Oc2cncc(-c3ccc(C)c(F)c3)c2)C(OC(C)=O)C1OC(C)=O (stereo not drawn),159
7,CCCCCCCCCCCCc1c2c(=O)c3ccccc3c2c(CCCCCCCCCCCC)c2c(=O)c3ccccc3c12,123 to 124
8,C=CCOC(=O)Cn1c(=O)n(S(=O)(=O)c2ccc(Cl)cc2)c(=O)c2ccccc21,164 to 166
9,N#Cc1cc(-c2ccccc2)[nH]c1Sc1ccc2ccccc2c1,93 to 94.4
10,CC1(C)NC(=O)c2cc(OCCBr)ccc2O1,190 to 195
11,CCn1c(C)c(C2(c3ccc(N(C)C)cc3N(C)C)OC(=O)c3ccccc32)c2ccccc21 (stereo not drawn),218 to 222
12,O=C(NCCCCCCCCn1ccnc1)c1ccc(Cl)nc1,79 to 81
13,CC(=O)c1cc2c(c(C(=O)O)c1)NCCC2,229
14,Cc1cc(Cl)cc2c(=O)oc(-c3cc(OCC(F)(F)F)nn3-c3ncccc3Cl)nc12,178 to 180
15,CNc1nc(Nc2ccc(Cl)c(Cl)c2)ncc1NC(=O)Oc1ccccc1,306
16,"CC1CCC(C(C)C)C(OC(=O)CCC(=O)OC2CC(C)CCC2C(C)C)C1 (single isomer, unassigned; (-))",61 to 62
17,CON1C(C)(C)CC(OC(=O)c2ccc3nn(-c4cc(C(C)(C)CC(C)(C)C)cc(C(C)(C)c5ccccc5)c4O)nc3c2)CC1(C)C,84 to 90
18,CCOP(=O)(O)C(=Nc1ccc(-c2c[nH]cn2)cc1)NCCSC,240 to 241
19,CCCNC(=O)C1(CCCCNc2ccc(Br)nc2)c2ccccc2-c2ccccc21,67 to 69
20,CC(=O)OC(CCl)c1cccnc1S(N)(=O)=O (stereo not drawn),146 to 147
21,O=S(=O)(CC(F)(F)F)c1nc2cc(F)ccc2[nH]1,160 to 162
22,C=CCNC(=O)C=Cc1cn(C)nc1[N+](=O)[O-],143 to 146
23,Cn1c(Cl)cnc1C#N,87 to 89
24,COc1ccc(S(=O)(=O)C(C)(CC2CCCCC2)C(=O)NO)cc1 (stereo not drawn),58
25,CCCCCSC1=NC(c2cccc([N+](=O)[O-])c2)C(C(=O)OCC)=C(C)N1 (stereo not drawn),104 to 105
26,Cn1c(=O)[nH]c2cnc(-c3ccccc3)nc21,286 to 289

row,SMILES,melting point [°C]
1,CCOC(=O)c1ncn2c1CN(C)C(=O)c1c(Cl)cccc1-2,229 to 230
2,COCOc1c(C(C)(C)C)cc(C=[N+]([O-])C(C)(C)C)cc1C(C)(C)C,202 to 206
3,CN1CCC(c2c[nH]c3ccc([N+](=O)[O-])cc23)C(F)C1 (stereo not drawn),105 to 107
4,CCOC(=O)c1cccc(Cn2cnc3cnccc32)c1,119 to 120
5,COc1cc2ncc(C#N)c(Nc3ccc(Oc4ccccc4)cc3)c2cc1OC,239 to 241
6,CCCCCCCCCCCCCCCCCCOc1cc(N)cc(OCCCCC(=O)OC)c1,57 to 59
7,O=C(O)c1cnc2sccc2c1Cl,172 to 174
8,O=c1c2cc(OCc3ccccc3)ccc2[nH]c2c([N+](=O)[O-])ccc(Cl)c12,216 to 217
9,CC(=O)N(C)c1cc(Br)cc(S(=O)(=O)c2ccccc2)c1,147 to 148
10,O=C(OCc1ccccc1)N1CCOc2cc(Oc3cc(Cl)ncn3)ccc21,110
11,CCOC(=O)c1sc(S(C)(=O)=O)c2c1CCc1c(Br)nn(C)c1-2,195 to 196
12,CN1C(=O)NC2(CCN(C(=O)OC(C)(C)C)CC2)C1=O,206 to 208
13,Nc1nc2c(sc(=O)n2COCCO)c(=O)[nH]1,230 to 232
14,CN1CCN(c2ccc([N+](=O)[O-])cc2F)CC1,68 to 70
15,O=C1Nc2cccc(/C=C/c3ccccc3Cl)c2/C1=C/c1ccc[nH]1,257 to 258
16,CCC(NC(=O)c1sc(NC(=O)c2ccccc2)nc1C)c1ccccc1 (stereo not drawn),87 to 89
17,COc1cccc(OC)c1C(=O)NC(=O)Nc1ccc(-c2ccc(Cl)cc2)cn1,205 to 215
18,COc1cc(OC)nc(Oc2cccnc2C(=O)O)n1,120 to 121
19,CCCCOc1ccc(C(=O)Nc2ccc3cc(CN4CCCC4C)cnc3c2C)cc1 (stereo not drawn),153 to 156
20,COC(=O)[C@H](Cc1ccc(NC(=O)c2c(Cl)cccc2Cl)cc1)NC(=O)C1(Cc2ccc(OC)cc2)CCCCC1,85 to 87
21,ON=C1CCCCCCC1Cc1ccccc1 (stereo not drawn),117 to 119
22,CC(=O)Nc1cccc(C=C2C(=O)c3ccccc3OC2c2ccccc2)c1 (stereo not drawn),172 to 173
23,O=C(CN1CCCC1=O)N1CCN(C(=O)CN2CC(c3ccc(Cl)cc3)CC2=O)CC1 (stereo not drawn),224 to 226
24,CCS(=O)(=O)CCC(=O)NNC(=O)N1Cc2cccc(Cl)c2Oc2ccccc21,195 to 197
25,CC(C(=O)O)c1c(Sc2ccccc2)c2cc(F)ccc2n1Cc1ccc(Cl)cc1 (stereo not drawn),80 to 82
26,Cc1cc(C)c(C(O)c2cc(-n3ccnc3)ccc2Cl)c(C)c1 (stereo not drawn),206 to 207

row,SMILES,melting point [°C]
1,O=c1oc(-c2ccccc2)cc(O)c1C(CC1CCCC1)SC1CCCCC1 (stereo not drawn),157 to 160
2,CCCCN1C(=O)c2cnc(-c3ccccc3)nc2Nc2ccccc21,140 to 141
3,CC(C)C(C(=O)O)c1ccc(O)c([N+](=O)[O-])c1 (stereo not drawn),103 to 105
4,COC(=O)c1ccc(Cl)nc1OC,68 to 69
5,Cn1cc2c(C3C(=O)Nc4ccc(Br)cc43)nc(NCCN)nc2n1 (stereo not drawn),260 to 262
6,O=c1cc(S)sc2cc(N3CCOCC3)ccc12,> 250
7,CCSc1c(C)nn(-c2c(Cl)cc(C(F)(F)F)cc2Cl)c1N,117
8,CC(C)n1nc(-c2c(OC3CCCCC3)nc(N)nc2-c2ccccc2)ccc1=O,173 to 175
9,O=C(Oc1ccc(N2c3ccccc3S(=O)(=O)c3ccccc32)cc1)c1ccccc1,233 to 235
10,C[C@H]1C(=O)Nc2ccc(Cl)cc2N1C(=O)Cl,194 to 195
11,N=C(N)c1ccc(N2CC(CN3CCCC(C(=O)O)C3)OC2=O)cc1 (stereo not drawn),198
12,CC(=O)O[C@H]1[C@H](NC(C)=NC#N)c2cc(C#N)ccc2OC1(C)C (relative stereo),236 to 238
13,Cc1ccc2c(c1)N=C(Cl)c1cscc1O2,208 to 209
14,COC(=O)c1ccc2c(C)csc2c1,46 to 47
15,c1ccc(COCC2c3ccccc3-c3ccccc32)cc1,69.5 to 70
16,COc1cccc(-c2ccc3c(C(=O)Nc4cccnc4)c(OC)ccc3c2)c1,154
17,CCOC(=O)c1nc(N)sc1-c1cn2cc(C)ccc2n1,268 to 271
18,O=C(O)CCc1ccc(OCc2cccc(-c3cncnc3)c2)cc1,166 to 167
19,CC(=O)C=Cc1cccc(OCCF)c1OCCF,71 to 72
20,O=Cc1cc(-c2ccc(F)cc2F)ccc1OC(F)(F)F,39 to 41
21,O=C(O)c1[nH]c(-c2ccccc2)cc1-c1ccc(O)cc1,192 to 193
22,COC(=O)[C@H]1[C@@H]2CC[C@@H](C2)[C@@H]1C(=O)O,59 to 60
23,CC12CCC3c4ccc(C(=O)O)cc4CCC3C1CCC2C(=O)c1cccnc1 (stereo not drawn),189 to 192
24,O=C(NNc1nc(-c2ccccc2)c2cc(Cl)ccc2n1)C(F)(F)F,207 to 208
25,CN1CCCCC1=NC(=O)Nc1ccccc1,145 to 158
26,COc1ccc(-c2nc3n(c2-c2ccccn2)CCC3)cc1,142 to 145

row,SMILES,melting point [°C]
1,COc1ccc(C2C(C(=O)c3ccc(N4CCOCC4)cc3)=C(O)C(=O)N2c2ccc(C)nn2)cc1 (stereo not drawn),232
2,O=C(NCCn1cncn1)c1ccc(Br)cc1,160 to 162
3,O=c1c2cnc3cc4c(cc3c2sn1CCc1ccccn1)OCO4,200 to 201
4,CONS(=O)(=O)c1cc(Cl)c(Cl)cc1Cl,163 to 166
5,COc1ccc2c(Cc3c(Cl)cncc3Cl)nncc2c1C=CCCCc1ccccc1,121 to 123
6,O[C@@H]1CCc2ccc(F)cc2C1,59 to 61
7,CCOc1c(C(=O)c2ccccc2)cnc2[nH]ncc12,195 to 197
8,O=C(Nc1n[nH]c(=S)s1)N[C@@H](Cc1ccccc1)C(=O)N1CCOCC1,213 to 216
9,CCC1=NNC(C)=C(C(=O)OC2CCCC2)C1c1cccc([N+](=O)[O-])c1 (stereo not drawn),110
10,CCOC(=O)C1=C(C)NC(C)=C(C(=O)OCC)C1c1ccc(Br)cc1F,154 to 155
11,Clc1ccc(Cl)c(CN2CCNc3ncc(-c4ccc(Cl)nc4)cc32)c1,205
12,CCCCCCCCCCCCc1c(C)[nH]c(C(=O)OCC)c1C,65 to 67
13,CCOC(=O)c1n[nH]c2ncc(I)cc2c1=O,238 to 242
14,CCCn1cc(-c2c(-c3ccccc3F)nn3ccncc23)ccc1=O,127 to 128
15,O=C(NC[C@H]1CN(c2ccc(C3C=CS(=O)(=O)CC3)cc2)C(=O)O1)C(F)F (stereo partly drawn),135 to 136
16,c1ccc(-c2nc3ccccc3s2)nc1,133 to 134
17,CSC1C(=O)Nc2cccc(-c3ccccc3)c21 (stereo not drawn),182 to 185
18,OC1CSC(Oc2cncc(-c3cc4ccccc4s3)c2)C(O)C1O (stereo not drawn),235
19,CCOC(=O)C(c1c(Cl)ccc(Cl)c1Cl)N(C(=O)CCl)c1ccc(Br)cc1 (stereo not drawn),141
20,CCOc1ccc2c(c1)n(CCN1CCOCC1)c(=O)n2S(=O)(=O)c1ccc(OC)cc1OC,146 to 149
21,O=C1CCOc2ccc(Oc3ccccc3)cc21,58 to 60
22,COC(=O)N1C(=O)c2ccccc2C1=O,184
23,CN(C)C(=S)Oc1ccc(S(=O)(=O)c2ccc(C#N)cc2)cc1,158 to 167
24,c1ccc2c(c1)N(CC1CCCCC1)CC21COc2cc3c(cc21)OCO3 (stereo not drawn),153 to 154
25,CCCN=C(N)Nc1ccnc(SC)n1,177 to 178
